From patent US20250368648A1, “MULTI-CYCLIC IRAK AND FLT3 INHIBITING COMPOUNDS AND USES THEREOF” (CHILDREN'S HOSPITAL MEDICAL CENTER, priority 2022, published 2025)
“Also recorded” adds a separate entry of the source.

Experiments:
[1] = system: MOLM14 (D835Y) cells; experiment: Combination drug screening, Cell Titer Glo, MOLM14 (D835Y) cells; details: FLT3 mutant setting (ITD-D835Y cells), Cell Titer Glo, 48 hours;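 also: MOLM14 cells with FLT3 ITD plus D835Y, 500 per well in 1536-well plates, 10-point dose ranges, luminescent viability after 48 h, negative Excess HSA indicates synergy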
Protocol: Briefly, 10 nL of the compound shown below was acoustically dispensed into 1536-well white polystyrene tissue culture-treated plates with an Echo 550 acoustic liquid handler (Labcyte). Cells were then added to compound-containing plate at a density of 500-cells/well in 5 μL of medium. A 6-point or 10-point custom concentration range was used for all listed drugs. Plates were incubated for 48 hours at standard incubator conditions covered by a stainless steel gasketed lid to prevent evaporation. 48h post compound addition, 3 μL of Cell Titer Glo (Promega) were added to each well and plates were incubated at room temperature for 15 minutes with the stainless-steel lid in place. Luminescence readings were taken using a Viewlux imager (PerkinElmer) with a 2 second exposure time per plate.
A smaller concentration indicates higher potency to synergize with Venetoclax.
A smaller concentration indicates higher potency to synergize with azacitidine.
This is a cell line that has the FLT3 ITD mutation but also the FLT3 D835Y kinase domain mutation. […] Excess HSA is a measure of synergy vs. additivity or antagonism, wherein a negative Excess HSA value is indicative of synergy.

[2] = system: THP1 cells; experiment: Combination drug screening, Cell Titer Glo, THP1 cells; details: FLT3 WT setting (THP1 cells), Cell Titer Glo, 48 hours;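 also: luminescence read out in 1536-well plates seeded with 500 THP1 cells per well, each drug spanning a 10-point concentration range in the combination matrix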
[3] = system: MOLM14-FLT3-ITD(D835Y) acute myeloid leukemia cells; experiment: AML efficacy study in mice engrafted with MOLM14-FLT3-ITD(D835Y); type: in vivo
Protocol: Female, NSG-SGM3 (NOD.Cg-Prkdc^scid Il2^tm1Wjl Tg(CMV-IL3, CSF2, KITLG)1Eav/MloySzJ) mice were intravascularly engrafted with MOLM14-FLT3-ITD(D835Y) acute myeloid leukemia cells. Injection of leukemia cells was performed on 3/21/2022. Mice were randomized and dosing began three weeks following engraftment. […] Mice experiencing clinical signs prior to scheduled end-date, including weight loss, lethargy, hunched posture, ruffled coat, or hind limb paralysis were humanely euthanized.
Bone marrow aspirates were performed when the initial vehicle control mice became clinical, 9 days following initiation of treatment. Aspirates were centrifuged, treated with RBC lysis buffer, resuspended in 250 μL PBS, and two cytospin chamber slides were loaded with 125 μL. Cytospins were used to create two cytology slides per mouse: one for Wright-Giemsa staining and the other for huCD45 immunocytochemistry, if needed. Cytology slides were graded according to the number of leukemic cells identified per 400× field as follows: 0, none; 1, 1-5 CD45+ cells; 2, 6-10 CD45+ cells; 3, 11-15 CD45+ cells; 4, 16-30 CD45+ cells; 5, >30 CD45+ cells.
At necropsy, sections of femur, tibia, vertebra, and sternum were evaluated for the presence of leukemic cells using H&E and CD45 immunohistochemistry, if needed. Grades for long bones, vertebrae, and sternum were recorded as follows: 0, no leukemic cells; 1, <1% of cells; 2, 1-10% of cells; 3, 10-50% of bone marrow; 4, >50% of bone marrow. Sums of the individual grades were taken for each mouse (range 0 to 12).
Leukemic burden was measured in NSGS mice xenografted with MOLM14 FLT3-ITD(D835Y) and quantified using bone marrow (BM) aspirates. An initial BM aspirate, accompanied by peripheral CBC evaluation (submandibular samples), was collected at the time that clinical signs first appeared in control mice to verify AML engraftment prior to the start of drug dosing. Cytospin chambers were used to create two cytology slides per bone marrow sample. Aspirate samples were of high quality for 85% of samples. A semi-quantitative grading system was applied to each bone marrow aspirate according to the number of leukemic cells identified per 400× field as follows:
• 1: 1-5 leukemic cells (per HPF) • 2: 6-10 leukemic cells • 3: 11-15 leukemic cells • 4: 16-30 leukemic cells • 5: >30 leukemic cells
All mice had evidence of leukemia within the bone marrow aspirate. Histopathology scores we re-taken for long bones (femur and tibia), vertebrae, and sternum as follows: 0, no leukemic cells; 1, <1% of cells; 2, 1-10% of cells; 3, 10-50% of bone marrow; 4, >50% of bone marrow. Scores were totaled (range: 0 to 12) and plotted by group at necropsy. […] To incorporate survival, the bone marrow grade was divided by the time on test (FIG. 10).

[4] = system: MOLM14-FLT3-ITD (D835Y) AML cells; experiment: Caspase-Glo 3/7 apoptosis assay, time course; type: cell-based
[5] = target: hERG (Homo sapiens, UniProt Q12809); experiment: Window to the hERG IC50 at the dose studied (FIG. 9B); details: at the dose studied (30 mg/kg, mice)
Sequence of hERG (Q12809 whole entry): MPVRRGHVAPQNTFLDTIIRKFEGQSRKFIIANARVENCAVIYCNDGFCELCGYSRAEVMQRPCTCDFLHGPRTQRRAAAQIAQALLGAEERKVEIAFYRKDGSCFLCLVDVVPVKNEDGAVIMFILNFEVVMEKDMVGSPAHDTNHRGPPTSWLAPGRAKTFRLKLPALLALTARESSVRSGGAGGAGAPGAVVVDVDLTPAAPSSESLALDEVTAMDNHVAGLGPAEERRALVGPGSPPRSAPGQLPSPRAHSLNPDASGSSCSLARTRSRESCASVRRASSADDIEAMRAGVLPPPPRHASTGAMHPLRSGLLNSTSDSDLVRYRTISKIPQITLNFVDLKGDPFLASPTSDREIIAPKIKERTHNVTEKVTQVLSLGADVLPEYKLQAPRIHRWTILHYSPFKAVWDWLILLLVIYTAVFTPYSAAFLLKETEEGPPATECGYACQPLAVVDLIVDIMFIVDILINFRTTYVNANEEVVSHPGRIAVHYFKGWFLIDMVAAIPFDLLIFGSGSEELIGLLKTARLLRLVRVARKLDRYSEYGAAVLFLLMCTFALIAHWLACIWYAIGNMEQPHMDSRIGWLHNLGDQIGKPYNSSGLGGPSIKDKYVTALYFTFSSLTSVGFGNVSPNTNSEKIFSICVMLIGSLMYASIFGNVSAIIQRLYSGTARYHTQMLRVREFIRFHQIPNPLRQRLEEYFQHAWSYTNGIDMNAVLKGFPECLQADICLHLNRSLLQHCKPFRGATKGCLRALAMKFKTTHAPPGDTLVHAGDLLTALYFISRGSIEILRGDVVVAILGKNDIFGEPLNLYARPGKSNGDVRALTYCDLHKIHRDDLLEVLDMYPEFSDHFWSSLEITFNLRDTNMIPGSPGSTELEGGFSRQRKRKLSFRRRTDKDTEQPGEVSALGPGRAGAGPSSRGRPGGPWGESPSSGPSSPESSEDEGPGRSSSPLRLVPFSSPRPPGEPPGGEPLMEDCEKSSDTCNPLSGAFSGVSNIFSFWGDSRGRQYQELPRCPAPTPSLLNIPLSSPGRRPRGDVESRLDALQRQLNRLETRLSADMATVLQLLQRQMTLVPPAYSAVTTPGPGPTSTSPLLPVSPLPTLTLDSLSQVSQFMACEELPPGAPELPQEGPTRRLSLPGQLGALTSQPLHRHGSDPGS

Structure (SMILES): COc1cc2ncc(-c3nc(N[C@@H]4CCCNC4)c(F)cc3F)n2nc1C1CC1 [Compound 106, (R)-6-(6-cyclopropyl-7-methoxyimidazo[1,2-b]pyridazin-3-yl)-3,5-difluoro-N-(piperidin-3-yl)pyridin-2-amine]
- synergy with venetoclax or azacitidine [1]: considerably more potent as a synergistic agent than either Gilteritinib or emavusertib (CA-4948)
- synergy with venetoclax or azacitidine [2]: considerably more potent as a synergistic agent than either Gilteritinib or emavusertib (CA-4948)
- survival ([3]; 30 mg/kg orally once/day M-F, 90 days, NSG-SGM3 mice): Significant survival differences; also recorded: enhanced survival in mice compared to gilteritinib and CA-4948 (emavusertib); also recorded: improved survival compared to those treated with gilteritinib or emavusertib (CA-4948)
- plasma levels (Cmax and AUC) against comparators ([3]; 30 mg/kg, mice, FIG. 9B): not due to higher plasma levels vs. gilteritinib or emavusertib
- survival-adjusted leukemic burden (bone marrow grade divided by time on test) ([3]; 90 day study, 30 mg/kg): decreased scores compared to standard of care F02 (Gilteritinib); also recorded: superior in reducing survival-adjusted leukemic burden
- survival persisting after withdrawal of the compound ([3]; after 90 days of treatment at 30 mg/kg, study then ended): 7 days
- bone marrow grades (leukemic burden) at necropsy ([3]; sum of histopathology scores of long bones, vertebrae, sternum (range 0 to 12)): Decreased bone marrow grades
- combination activity with venetoclax (apoptosis induction) ([4]; dose level 6: gilteritinib 25 nM or Compound 106 12 nM with venetoclax 25 nM): much stronger than any of the other drug combinations
- combination activity with venetoclax (apoptosis induction over 24 hours) ([4]; dose level 7: 4 nM of Compound 106 and 8 nM of venetoclax): high activity
- cells entering apoptosis, combination with venetoclax ([4]; dose level 7: 4 nM of Compound 106 and 8 nM of venetoclax, four hours): about half of the cells enter into apoptosis in four hours
- combination activity with venetoclax (apoptosis induction over 24 hours) ([4]; dose level 8: 1.37 nM of Compound 106 and 2.7 nM of venetoclax): high activity
- cells stimulated to apoptosis ([4]; single agent, 1.37 nM, 12 hours of coverage): about 30%
- time at which apoptosis starts, single agent ([4]; single agent, even at the lowest dose of 1.37 nM, Caspase-Glo 3/7): ≤ 12 h
- window to the hERG IC50 [5]: larger window to the hERG IC50 than does emavusertib (CA-4948)
